This passage reports water solubility results from patent EP1227795B1, “LIPID COMPLEX OF ALKYCYCLINES” (priority 1999, dated 2001).

A short description of this data set: water solubility of the alkycycline. The format is physicochemical. How it is done:
The alkycycline of formula Ia as defined above is quite water insoluble (less than 0.1 mg/ml). This makes it difficult to be formulated as a sterile, storage stable, dosage form. Additionally, the alkycycline is unstable: • after twelve months at 4°C the decomposition of the bulk product is about from 4 to 6%. This percentage of decomposition is absolutely not acceptable for a pharmaceutical product.

As to “4-demethoxy-3'-deamino-3'-aziridinyl-4'-methansulfonyl daunorubicin [Ia]”, the water solubility result is on record as “less than 0.1 mg/ml”.
